Experimental data taken from patent US20260191889A1, “TREHALOSE FOR TREATING HUNTINGTON'S DISEASE” (GLD Debt Acquisition 2025-1, priority 2022, published 2026).

How the values were obtained:
[1] = tested on: transgenic R6/2 mice (a disease model for Huntington's Disease); test: Lifespan of R6/2 mice after treatment with MT; assay type: in vivo, Mus musculus; conditions: MT 5 g/kg i.p. 5 times per week from 4 weeks of age, vehicle 101, wild-type 181
Procedure: The objective of this study was to assess the effects of molecular trehalose (MT) in the R6/2 mouse model of Huntington's disease through intraperitoneal (IP) injections. Treated mice […] were administered (i.e. dosed) with a MT intraperitoneal (i.p.) injection. Mice were weighed twice per week until 8 weeks post infusion i.e., 12 weeks of age or followed until survival. At a minimum of 8 weeks post infusion or MT dosing, mice were sacrificed 30 minutes after last MT, and the following tissues were collected: blood, brain, and tail. Immunohistochemistry analysis for GFAP, Iba1, EM-47 and Darpp-32 were performed on brain hemisphere 1 samples and the amount of MT in blood and brain hemisphere 2 samples was determined.
Male R6/2 (B6CBA-Tg(HDexon1)62Gpb/3J) (The Jackson Laboratory, USA, JAX stock: 006494) mice (Mus musculus) between the ages of 28-33 days were used in this study. […]
Eleven male mice were treated with trehalose 5 g/kg (i.p. injection, 25 ml/kg, trehalose dose formulation concentration: 0.2 g/ml, with active trehalose corresponding to 5.252 g/kg of trehalose dihydrate), 5 times per week starting at 4 weeks of age. […] Mice were euthanized at 8 weeks after first trehalose dose (12 weeks of age, n=8). n=3 mice/group were monitored until survival. […]

[2] = tested on: transgenic R6/2 mice (a disease model for Huntington's Disease); test: Body weight of R6/2 mice after treatment with MT; assay type: in vivo, Mus musculus; conditions: MT 5 g/kg i.p. 5 times per week, average±standard error (±0.6), vehicle 16.5, wild-type 30.7
Procedure: Eleven male mice were treated with trehalose 5 g/kg (i.p. injection, 25 ml/kg, trehalose dose formulation concentration: 0.2 g/ml, with active trehalose corresponding to 5.252 g/kg of trehalose dihydrate), 5 times per week starting at 4 weeks of age. There were a total of 41 doses or doses stopped when mice were euthanized. Mice were euthanized at 8 weeks after first trehalose dose (12 weeks of age, n=8). n=3 mice/group were monitored until survival.
Body Weights—Body weights were monitored twice per week throughout the study for all animals. Pre-trehalose treatment onset baseline body weight was used to assign the animals to experimental groups. Terminal body weights were not registered from animals found dead or euthanized moribund.
MT was administered to mice i.p. 5 times per week (from Monday to Friday). Dose volume was 25 ml/kg. Dose was 5 g/kg. Pure trehalose dose formulation concentration was 0.2 g/ml. The last dose of animals euthanized at 8 weeks post infusion (age week 12) was 30 min prior to terminal sampling.
Body Weight—Comparisons between two groups used a two-way Mixed-effects model (Mixed Anova) with Geisser-Greenhouse correction (not assuming sphericity), followed by Fisher's LSD test between the two groups performed for each time point. Time, group and the interaction of Time×Group were fixed effects, and the individual subject was the random effect. […]

DARPP-32 = DARPP-32 immunohistochemistry in brain of R6/2 mice; assay type: in vivo, Mus musculus; conditions: MT-treated vs untreated transgenic R6/2 mice, FIG. 1
Procedure: (§1) Cryosectioning—Cryosectioning was performed to striatal (left hemisphere) (Bregma +1.30 mm to −0.8 mm from Bregma, containing the infusion site at +0.5 mm) region and sections were collected as 20 μm thick sections on slides. A series of sections consisted of 8 sections with an interval of 300 μm in-between each section. A total of 5 series were collected from the target region using subsequent slides. For phase I, Series 1 & 3 were used for IHC analysis of EM48, series 2 was used for Darpp-32, series 4 was used for Iba1+GFAP and Series 5 was used for piloting and negative controls. For phase II, A total of 6 series were collected from the target region using subsequent slides. Series 1 was used for IHC analysis of EM48, series 2 was used for Darpp-32, series 4 was used for Iba1+GFAP. Series 5 was collected as spare samples and series 6 was used for piloting and negative controls. […]
(§2) Antigen expression analyses—The stained sections were scanned with the Olympus VS120 slide scanner using the proper fluorescent or brightfield channels. The regions of interest (ROIs) (striatum/cortex) were analyzed for positive immunostaining of the respective targets (EM48, DARPP-32, GFAP and Iba1) applying the VIS—Visiopharm Integrator System (Visiopharm, Denmark).
(§3) Positive staining of the respective antigens was detected by applying a suitable threshold which recognizes only truly positive staining. […]

[3] = tested on: EM48 (huntingtin protein; mHTT aggregates); test: EM48 immunohistochemistry in brain of R6/2 mice; assay type: in vivo, Mus musculus; conditions: MT-treated vs untreated transgenic R6/2 mice
Procedure: as §1, §2, §3

GFAP = GFAP immunohistochemistry in brain of R6/2 mice; assay type: in vivo, Mus musculus; conditions: MT-treated vs untreated transgenic R6/2 mice, FIG. 4
Procedure: as §1, with “Iba1+GFAP.” for “Iba1+GFAP. Series 5 was collected as spare samples and series 6 was used for piloting and negative controls.”
(§4) For fluorescence immunohistochemistry (GFAP and Iba-1) the following general protocol was applied: […]
as §2, §3

Iba-1 = Iba-1 immunohistochemistry in brain of R6/2 mice; assay type: in vivo, Mus musculus; conditions: MT-treated vs untreated transgenic R6/2 mice, FIG. 5
Procedure: as §1, with “Iba1+GFAP.” for “Iba1+GFAP. Series 5 was collected as spare samples and series 6 was used for piloting and negative controls.”
as §4, §2, §3

[4] = Safety profile from previous clinical trials of trehalose injection; assay type: in vivo, human; conditions: metabolized by trehalase enzymes into 2 glucose molecules
Source text: Risks of study participation also includes the risk of an infusion reaction or infusion site reactions. […] If needed, the use of an implanted venous access device (i.e., Mediport) or percutaneous indwelling catheter is permitted; however, if small caliber indwelling catheters in peripheral vessels is required, they should be for single use only. Additional risks include those risks related to venipuncture (e.g., hematoma, bleeding, pain, infection), which are low, and the risk of progression of disease for participants assigned to receive.

[5] = tested on: neurofilament light chain (NfL) protein; test: NfL concentration in blood serum of a subject with HD on weekly IV trehalose; assay type: in vivo, human; conditions: subject 02-001 (HD)
Procedure: This study consisted of a 2-week screening period, a 24-week open-label treatment period, and a 2-week safety follow-up period. Eligible subjects received substantially purified trehalose, administered as a once weekly IV infusion over 60 minutes±5 min for volumes≤600 mL or 90 minutes±5 min for volumes>600 mL. The total volume of the infusion was based on the weight of the subject and a dose of 0.75 g trehalose per kg of subject weight (g/kg). An additional 52 weeks of open-label trehalose treatment was planned for consenting subjects who were determined to be medically appropriate after their completion of the primary 24-week open-label treatment period.
Blood samples were obtained from subjects at the screening/baseline and during week 12 and week 24 for analyses. Blood serum was to determine the concentration of neurofilament light chain (NfL) protein in blood serum before and after initiation of trehalose treatment. Nfl concentrations in blood serum were measured using a Simoa® NF-light™ Advantage Kit by Quanterix. Higher concentrations of Nfl in subject blood serum is an indicator of clinical severity of HD, and lower concentrations compared to concentrations of the same subject indicates reversal or slowing of HD progression.

[6] = tested on: Huntington's disease (HD); test: Clinical scores of a subject with HD on weekly IV trehalose; assay type: in vivo, human
Procedure: This study consisted of a 2-week screening period, a 24-week open-label treatment period, and a 2-week safety follow-up period. Eligible subjects received substantially purified trehalose, administered as a once weekly IV infusion over 60 minutes±5 min for volumes≤600 mL or 90 minutes±5 min for volumes>600 mL. The total volume of the infusion was based on the weight of the subject and a dose of 0.75 g trehalose per kg of subject weight (g/kg). An additional 52 weeks of open-label trehalose treatment was planned for consenting subjects who were determined to be medically appropriate after their completion of the primary 24-week open-label treatment period. The primary study objectives were to determine safety and tolerability, and treatment responses associated with trehalose administered to subjects with HD. Safety and tolerability were determined by incidences of treatment-emergent adverse events (TEAEs) and serious adverse events ([…]), including clinically significant laboratory or diagnostic testing abnormalities. Laboratory samples, electrocardiograms (ECGs), and a rating on the Columbia Suicide Severity Rating Scale (C-SSRS) were obtained from the subject at the screening/baseline and during week 4, week 12, and week 24. Physical and neurological examinations of the subject were conducted at the screening/baseline and during week 12 and week 24. Vital signs and adverse events (AEs) of the subject were obtained at visits for study drug infusions and any unscheduled visits. In addition, AEs of the subject were obtained by scheduled or unscheduled telephone communications. Treatment responses were determined by assessments and comparative analyses of the following clinical scores that were obtained at the screening/baseline and follow-up study visits. All subjects completed the Patient Global Impression of Change (PGIC), the Clinical Global Impression of Change (CGIC), and the Clinical Global Impression of Severity (CGI-S) during week 4, week 8, week 12, week 18, and week 24. In addition, all participants completed the Patient's Global Impression of Severity (PGI-S), EQ Visual Analog Scale (EQ-VAS), and the CGI-S on day 1 and during week 4, week 8, week 12, week 18, and week 24. At the screening/baseline and during week 4, week 8, week 12, week 18, and week 24, subjects completed the UHDRS-TFC and the UHDRS-Independence Scale.

[7] = administered orally in humans; cleaved by gut trehalase; cited from earlier work
[8] = 3 months (12 weeks), 0.75 g/kg IV once weekly
[9] = after 3 months (12 weeks), 0.75 g/kg IV once weekly

Structure (SMILES): OC[C@H]1O[C@H](O[C@H]2O[C@H](CO)[C@@H](O)[C@H](O)[C@H]2O)[C@H](O)[C@@H](O)[C@@H]1O [MT, trehalose]
- median lifespan [1]: 119 days
- average final body weight [2]: 21.5 g
- levels of DARPP-32 in the striatum (IHC, positive cells/mm^2) (DARPP-32): lower levels
- levels of EM48 in the cortex (IHC, positive cells/mm^2) ([3]; FIG. 2): lower levels
- levels of EM48 in the striatum (IHC, positive cells/mm^2) ([3]; FIG. 3): lower levels
- levels of GFAP in the striatum (IHC, % staining area) (GFAP): lower levels
- levels of Iba-1 in the striatum (IHC, % staining area) (Iba-1): lower levels
- active metabolites [4]: no active metabolites
- NfL Protein Concentration ([5]; Screening / Day 0 (baseline before treatment)): 21.20 pg/mL
- NfL Protein Concentration ([5]; Week 12 / Day 84, 0.75 g/kg IV once weekly): 17.55 pg/mL
- NfL Protein Concentration ([5]; Week 24 / Day 168, 0.75 g/kg IV once weekly): 19.95 pg/mL
- CGI-S rating ([6]; 3 months (12 weeks)): A Little Better
- CGIC rating ([6]; 3 months (12 weeks)): A Little Better
- change in the UHDRS Functional Capacity [6, 8]: no change
- change in the UHDRS Independence Scale [6, 8]: no change
- Global impression of Health on a Visual Analog Scale [6, 9]: 90
- mini-mental status examination (MMSE) score [6, 9]: 27
- Global impression of Health on a Visual Analog Scale ([6]; baseline): 70
- mini-mental status examination (MMSE) score ([6]; baseline): 26
- trehalose reaching systemic circulation [7]: < 0.5%
